Experimental data from PubChem BioAssay (NCI).
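Dose response: 5 concentrations. Exposure: 48 h. Format: 96-well plates. Endpoint: linear interpolation; highest concentration if not reached. The concentration for full growth arrest is given as TGI.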 Where a SMILES comes first, the peptide text is derived from it. [ ]: non-standard residue; d: D form. The star is where a group is joined. ξ: configuration not given here. ξPhe(4-NO2) = NC(Cc1ccc([N+](=O)[O-])cc1)C(=O)O; Boc = CC(C)(C)OC(=O)*

Legend:
Test in all cases: NCI tumour cell line growth inhibition, 48 h
K-562 leukemia = test system: K-562 leukemia
OVCAR-8 ovarian = test system: OVCAR-8 ovarian
NCI/ADR-RES ovarian = test system: NCI/ADR-RES ovarian
SW-620 colon = test system: SW-620 colon
HT29 colon = test system: HT29 colon
RPMI-8226 leukemia = test system: RPMI-8226 leukemia
UACC-62 melanoma = test system: UACC-62 melanoma
DU-145 prostate = test system: DU-145 prostate
OVCAR-4 ovarian = test system: OVCAR-4 ovarian
MCF7 breast = test system: MCF7 breast
CCRF-CEM leukemia = test system: CCRF-CEM leukemia
SK-MEL-2 melanoma = test system: SK-MEL-2 melanoma
UACC-257 melanoma = test system: UACC-257 melanoma
SF-539 CNS = test system: SF-539 CNS

CCNC(=O)CNC(=O)C(Cc1ccc([N+](=O)[O-])cc1)NC(=O)OC(C)(C)C (stereo not given) (Boc-[ξPhe(4-NO2)]-Gly-NHEt)
TGI (K-562 leukemia): > 100 µM
TGI (OVCAR-8 ovarian): > 100 µM
TGI (NCI/ADR-RES ovarian): > 100 µM
TGI (SW-620 colon): > 100 µM
TGI (HT29 colon): > 100 µM
TGI (RPMI-8226 leukemia): > 100 µM
TGI (UACC-62 melanoma): > 100 µM
TGI (DU-145 prostate): > 100 µM
TGI (OVCAR-4 ovarian): > 100 µM
TGI (MCF7 breast): > 100 µM
TGI (CCRF-CEM leukemia): > 100 µM

COc1ccc2c(c1)C=C(C(C)(C)C)NS2(=O)=O
TGI (K-562 leukemia): > 100 µM
TGI (OVCAR-8 ovarian): > 100 µM
TGI (SW-620 colon): > 100 µM
TGI (SK-MEL-2 melanoma): > 100 µM
TGI (HT29 colon): > 100 µM
TGI (UACC-62 melanoma): > 100 µM
TGI (OVCAR-4 ovarian): > 100 µM
TGI (UACC-257 melanoma): > 100 µM
TGI (SF-539 CNS): > 100 µM
TGI (CCRF-CEM leukemia): > 100 µM

C=C(C)C1CC2=C(O1)C(=O)c1cccc(O)c1C2=O (stereo not given)
TGI (K-562 leukemia): 0.689 µM
TGI (OVCAR-8 ovarian): 1.81 µM
TGI (NCI/ADR-RES ovarian): 2.78 µM
TGI (SW-620 colon): 2.96 µM
TGI (SK-MEL-2 melanoma): 2.68 µM
TGI (HT29 colon): 3.13 µM
TGI (RPMI-8226 leukemia): 1.22 µM
TGI (UACC-62 melanoma): 2.18 µM
TGI (DU-145 prostate): 3.15 µM
TGI (OVCAR-4 ovarian): 0.926 µM
TGI (MCF7 breast): 1.96 µM
TGI (UACC-257 melanoma): 1.01 µM
TGI (SF-539 CNS): 1.89 µM

N#Cc1c2ccc([N+](=O)[O-])cc2c(=O)n2c1sc1ccccc12
TGI (K-562 leukemia): 29.5 µM
TGI (OVCAR-8 ovarian): > 100 µM
TGI (NCI/ADR-RES ovarian): 66.3 µM
TGI (SW-620 colon): > 100 µM
TGI (SK-MEL-2 melanoma): 53.6 µM
TGI (HT29 colon): > 100 µM
TGI (RPMI-8226 leukemia): 40.5 µM
TGI (UACC-62 melanoma): > 100 µM
TGI (DU-145 prostate): > 100 µM
TGI (OVCAR-4 ovarian): 98.8 µM
TGI (UACC-257 melanoma): > 100 µM
TGI (CCRF-CEM leukemia): 34.4 µM

CCOc1ncnc2ccc(Cl)c(I)c12
TGI (K-562 leukemia): > 100 µM
TGI (OVCAR-8 ovarian): > 100 µM
TGI (SW-620 colon): > 100 µM
TGI (SK-MEL-2 melanoma): > 100 µM
TGI (HT29 colon): > 100 µM
TGI (RPMI-8226 leukemia): > 100 µM
TGI (UACC-62 melanoma): > 100 µM
TGI (OVCAR-4 ovarian): > 100 µM
TGI (UACC-257 melanoma): > 100 µM
TGI (CCRF-CEM leukemia): > 100 µM

C=CCN(c1cc(OC)c2c(c1[N+](=O)[O-])C(C)(SC)C(=O)N2)S(C)(=O)=O (stereo not given)
TGI (K-562 leukemia): > 100 µM
TGI (OVCAR-8 ovarian): > 100 µM
TGI (NCI/ADR-RES ovarian): > 100 µM
TGI (SW-620 colon): > 100 µM
TGI (SK-MEL-2 melanoma): > 100 µM
TGI (HT29 colon): > 100 µM
TGI (RPMI-8226 leukemia): > 100 µM
TGI (UACC-62 melanoma): > 100 µM
TGI (DU-145 prostate): > 100 µM
TGI (OVCAR-4 ovarian): > 100 µM
TGI (MCF7 breast): > 100 µM
TGI (UACC-257 melanoma): > 100 µM
TGI (SF-539 CNS): > 100 µM

C[C@H](CO)C1=CC(C#C[Si](C)(C)C)N(C(=O)Oc2ccccc2)c2ccccc21 (stereo not given in full)
TGI (K-562 leukemia): > 100 µM
TGI (OVCAR-8 ovarian): 42.9 µM
TGI (NCI/ADR-RES ovarian): 12.6 µM
TGI (SW-620 colon): > 100 µM
TGI (SK-MEL-2 melanoma): 30.2 µM
TGI (HT29 colon): 20.5 µM
TGI (RPMI-8226 leukemia): > 100 µM
TGI (UACC-62 melanoma): 19.9 µM
TGI (DU-145 prostate): 31.7 µM
TGI (OVCAR-4 ovarian): 21.8 µM
TGI (UACC-257 melanoma): 28.3 µM
TGI (SF-539 CNS): 33.9 µM
TGI (CCRF-CEM leukemia): 53.1 µM

CC(C)(C)OC(=O)N1CCC(NC(=O)NC2CCN(C(=O)OC(C)(C)C)CC2)CC1
TGI (OVCAR-8 ovarian): > 100 µM
TGI (NCI/ADR-RES ovarian): > 100 µM
TGI (SW-620 colon): > 100 µM
TGI (SK-MEL-2 melanoma): > 100 µM
TGI (HT29 colon): > 100 µM
TGI (RPMI-8226 leukemia): > 100 µM
TGI (UACC-62 melanoma): > 100 µM
TGI (OVCAR-4 ovarian): > 100 µM
TGI (MCF7 breast): > 100 µM
TGI (UACC-257 melanoma): > 100 µM
TGI (SF-539 CNS): > 100 µM
TGI (CCRF-CEM leukemia): > 100 µM

Cn1c(O)c(C=Nc2ccc(Cl)cc2Cl)c(=O)n(C)c1=O
TGI (K-562 leukemia): > 100 µM
TGI (OVCAR-8 ovarian): > 100 µM
TGI (NCI/ADR-RES ovarian): > 100 µM
TGI (SW-620 colon): > 100 µM
TGI (SK-MEL-2 melanoma): > 100 µM
TGI (HT29 colon): > 100 µM
TGI (RPMI-8226 leukemia): > 100 µM
TGI (UACC-62 melanoma): > 100 µM
TGI (OVCAR-4 ovarian): > 100 µM
TGI (MCF7 breast): > 100 µM
TGI (UACC-257 melanoma): > 100 µM
TGI (SF-539 CNS): > 100 µM
TGI (CCRF-CEM leukemia): > 100 µM

Brc1ccc(C2CC3(c4ccccc4)ON=C(c4ccccc4)N3c3ccccc3S2)cc1 (stereo not given)
TGI (K-562 leukemia): > 100 µM
TGI (OVCAR-8 ovarian): > 100 µM
TGI (NCI/ADR-RES ovarian): > 100 µM
TGI (SW-620 colon): > 100 µM
TGI (SK-MEL-2 melanoma): > 100 µM
TGI (HT29 colon): > 100 µM
TGI (UACC-62 melanoma): > 100 µM
TGI (DU-145 prostate): > 100 µM
TGI (OVCAR-4 ovarian): > 100 µM
TGI (MCF7 breast): > 100 µM
TGI (UACC-257 melanoma): > 100 µM
TGI (SF-539 CNS): > 100 µM
TGI (CCRF-CEM leukemia): > 100 µM

CC(C)C1=CC23CCC4C(C)(C(=O)O)CCCC4(C)C2CC1C1C(=O)N(c2cccc(N4C(=O)C5C6CC7C8(C)CCCC(C)(C(=O)O)C8CCC7(C=C6C(C)C)C5C4=O)c2)C(=O)C13 (stereo not given)
TGI (K-562 leukemia): 96.1 µM
TGI (OVCAR-8 ovarian): 22.7 µM
TGI (SW-620 colon): 31.4 µM
TGI (SK-MEL-2 melanoma): 29.9 µM
TGI (HT29 colon): 10.8 µM
TGI (UACC-62 melanoma): 80.1 µM
TGI (DU-145 prostate): 22.7 µM
TGI (OVCAR-4 ovarian): > 100 µM
TGI (MCF7 breast): 16 µM
TGI (SF-539 CNS): 57.7 µM
TGI (CCRF-CEM leukemia): 26.2 µM

NS(=O)(=O)c1nnc(NC(=O)/C=C/C(=O)O)s1
TGI (K-562 leukemia): > 100 µM
TGI (OVCAR-8 ovarian): > 100 µM
TGI (NCI/ADR-RES ovarian): > 100 µM
TGI (SW-620 colon): > 100 µM
TGI (SK-MEL-2 melanoma): > 100 µM
TGI (HT29 colon): > 100 µM
TGI (RPMI-8226 leukemia): > 100 µM
TGI (UACC-62 melanoma): > 100 µM
TGI (DU-145 prostate): > 100 µM
TGI (OVCAR-4 ovarian): > 100 µM
TGI (MCF7 breast): > 100 µM
TGI (UACC-257 melanoma): > 100 µM
TGI (SF-539 CNS): > 100 µM

NS(=O)(=O)c1ccc(N2C(=O)C(=O)N(c3ccccc3)C2=S)cc1
TGI (K-562 leukemia): > 100 µM
TGI (OVCAR-8 ovarian): > 100 µM
TGI (NCI/ADR-RES ovarian): > 100 µM
TGI (SW-620 colon): > 100 µM
TGI (SK-MEL-2 melanoma): > 100 µM
TGI (HT29 colon): > 100 µM
TGI (RPMI-8226 leukemia): > 100 µM
TGI (UACC-62 melanoma): > 100 µM
TGI (DU-145 prostate): > 100 µM
TGI (OVCAR-4 ovarian): > 100 µM
TGI (UACC-257 melanoma): > 100 µM
TGI (SF-539 CNS): > 100 µM
TGI (CCRF-CEM leukemia): > 100 µM

O=C1c2cc([N+](=O)[O-])sc2C(=O)c2cc([N+](=O)[O-])sc21
TGI (OVCAR-8 ovarian): 18.6 µM
TGI (NCI/ADR-RES ovarian): 11.3 µM
TGI (SW-620 colon): 3.37 µM
TGI (SK-MEL-2 melanoma): 21.4 µM
TGI (HT29 colon): 11.5 µM
TGI (UACC-62 melanoma): 3.8 µM
TGI (DU-145 prostate): 23.9 µM
TGI (OVCAR-4 ovarian): 8.71 µM
TGI (MCF7 breast): 9.92 µM
TGI (UACC-257 melanoma): 11.8 µM
TGI (SF-539 CNS): 8.51 µM
TGI (CCRF-CEM leukemia): > 19.8 µM

CC(C)(C)C(=O)CC(=O)C(F)(F)C(F)(F)C(F)(F)F.[Ag]
TGI (K-562 leukemia): 65.8 µM
TGI (OVCAR-8 ovarian): 49.4 µM
TGI (NCI/ADR-RES ovarian): 48.6 µM
TGI (SW-620 colon): 47 µM
TGI (SK-MEL-2 melanoma): 33.6 µM
TGI (HT29 colon): 36 µM
TGI (RPMI-8226 leukemia): 44.5 µM
TGI (UACC-62 melanoma): 32 µM
TGI (DU-145 prostate): > 100 µM
TGI (OVCAR-4 ovarian): 30.5 µM
TGI (UACC-257 melanoma): 30.1 µM
TGI (SF-539 CNS): 57.6 µM
TGI (CCRF-CEM leukemia): 43.8 µM

CN(C)c1c(C2CC(O)C(CO)O2)c(=O)c1=O (stereo not given)
TGI (K-562 leukemia): > 100 µM
TGI (OVCAR-8 ovarian): > 100 µM
TGI (NCI/ADR-RES ovarian): > 100 µM
TGI (SW-620 colon): > 100 µM
TGI (SK-MEL-2 melanoma): > 100 µM
TGI (HT29 colon): > 100 µM
TGI (RPMI-8226 leukemia): > 100 µM
TGI (UACC-62 melanoma): > 100 µM
TGI (DU-145 prostate): > 100 µM
TGI (OVCAR-4 ovarian): > 100 µM
TGI (MCF7 breast): > 100 µM
TGI (UACC-257 melanoma): > 100 µM
TGI (SF-539 CNS): > 100 µM

Nc1nc(Cc2ccccc2)nc(Cc2ccccc2)c1-c1ccccc1
TGI (K-562 leukemia): > 100 µM
TGI (OVCAR-8 ovarian): > 100 µM
TGI (NCI/ADR-RES ovarian): 55 µM
TGI (SW-620 colon): > 100 µM
TGI (SK-MEL-2 melanoma): 29.8 µM
TGI (HT29 colon): > 100 µM
TGI (UACC-62 melanoma): 43 µM
TGI (DU-145 prostate): 56.1 µM
TGI (OVCAR-4 ovarian): > 100 µM
TGI (UACC-257 melanoma): > 100 µM

CC(c1ccccc1)C(O)S(=O)(=O)O (stereo not given)
TGI (OVCAR-8 ovarian): > 100 µM
TGI (SW-620 colon): > 100 µM
TGI (SK-MEL-2 melanoma): > 100 µM
TGI (HT29 colon): > 100 µM
TGI (RPMI-8226 leukemia): > 100 µM
TGI (UACC-62 melanoma): > 100 µM
TGI (OVCAR-4 ovarian): > 100 µM
TGI (UACC-257 melanoma): > 100 µM
TGI (SF-539 CNS): > 100 µM
TGI (CCRF-CEM leukemia): > 100 µM
